Test results from patent publication US20060069132A1, “Azolecarboxamide herbicides” (priority 2004, published 2006).

Legend:
[1] = system: barnyardgrass; assay: Test B pre-/postemergence herbicide test; type: in vivo, Echinochloa crus-galli
Method in brief: (§1)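 Response was scored visually 13 to 15 days after treatment against untreated greenhouse controls, 0 meaning no effect and 100 complete control. Formulations (solvent mixture plus surfactant) went onto soil after planting, onto foliage of 1- to 4-leaf plants, and onto 2-leaf plants in a flooded paddy set including rice and barnyardgrass.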

[2] = system: cocklebur; assay: Test B pre-/postemergence herbicide test; type: in vivo, Xanthium strumarium
Method in brief: as §1

[3] = system: corn; assay: Test B pre-/postemergence herbicide test; type: in vivo, Zea mays
Method in brief: (§2)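 Flooded paddy rice and barnyardgrass were treated at the 2-leaf stage; upland plantings received compound either on sown seed or on 1- to 4-leaf seedlings. All were kept 13–15 days in a greenhouse and scored visually, 0–100, relative to untreated plants.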

[4] = system: giant foxtail; assay: Test B pre-/postemergence herbicide test; type: in vivo, Setaria faberi
Method in brief: as §2

[5] = system: lambsquarters; assay: Test B pre-/postemergence herbicide test; type: in vivo, Chenopodium album
Method in brief: as §2

[6] = system: morningglory; assay: Test B pre-/postemergence herbicide test; type: in vivo, Ipomoea coccinea
Method in brief: as §1

[7] = system: pigweed; assay: Test B pre-/postemergence herbicide test; type: in vivo, Amaranthus retroflexus
Method in brief: as §2

[8] = system: velvetleaf; assay: Test B pre-/postemergence herbicide test; type: in vivo, Abutilon theophrasti
Method in brief: as §2

[9] = system: blackgrass; assay: Test B postemergence herbicide test; type: in vivo, Alopecurus myosuroides
Method in brief: (§3)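 Visual control ratings, 0–100 versus untreated controls, taken after 13 to 15 days in the greenhouse. Blackgrass received a postemergence spray at the 1- to 4-leaf stage (2–18 cm); ducksalad, umbrella sedge and barnyardgrass were flooded-paddy treated at 2 leaves.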

[10] = system: wheat; assay: Test B postemergence herbicide test; type: in vivo, Triticum aestivum; parameters: key to Wheat plant response rating: 0 = no effect, 100 = complete control
Method in brief: (§4)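 Treated at 2-leaf (paddy) or 1–4-leaf, 2–18 cm (postemergence); greenhouse 13–15 d; visual score vs control, 0 none to 100 complete control; dash = not tested.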

[11] = system: wild oat; assay: Test B postemergence herbicide test; type: in vivo, Avena fatua
Method in brief: as §4

[12] = system: rice; assay: Test B flooded paddy test; type: in vivo, Oryza sativa; conditions: 1000 g ai/ha, scale 0 to 100 (0 no effect, 100 complete control)
Method in brief: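 After treating 2-leaf paddy plants or 2–18 cm postemergence plants (1 to 4 leaves) with formulated chemical, researchers kept them in a greenhouse for 13–15 days. Effects were judged visually versus controls: 0 indicates none, 100 total control.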

[13] = system: small flower umbrella sedge; assay: Test B flooded paddy test; type: in vivo, Cyperus difformis; conditions: 1000 g ai/ha, scale 0 to 100 (0 no effect, 100 complete control)
Method in brief: as §3

[14] = system: ducksalad; assay: Test B flooded paddy test; type: in vivo, Heteranthera limosa; conditions: 1000 g ai/ha, scale 0 to 100 (0 no effect, 100 complete control)
Method in brief: as §3

[15] = system: barnyardgrass; assay: Test B flooded paddy test; type: in vivo, Echinochloa crus-galli; conditions: 1000 g ai/ha, scale 0 to 100 (0 no effect, 100 complete control)
Method in brief: as §3

[16] = 125 g ai/ha; 0 = no effect, 100 = complete control; preemergence
[17] = 500 g ai/ha; visual rating 0-100, 0 no effect, 100 complete control; preemergence
[18] = postemergence, 125 g ai/ha; visual rating, scale 0 (no effect) to 100 (complete control)
[19] = postemergence, 500 g ai/ha; visual rating, scale 0 (no effect) to 100 (complete control)
[20] = 125 g ai/ha; visual rating, scale 0 (no effect) to 100 (complete control); postemergence
[21] = 500 g ai/ha; visual rating, 0 = no effect, 100 = complete control; preemergence
[22] = postemergence, 500 g ai/ha; scale 0 to 100, 0 is no effect, 100 is complete control

CCc1nc(C(C)(C)C)sc1C(=O)Nc1cccc(C(=O)NCCF)c1 [Compound 209]
100: Plant response rating, Lambsquarters [5, 17] | Plant response rating, Pigweed [7, 17]
90: Plant response rating, Barnyardgrass [1, 17] | Sedge, Umbrella plant response rating ([13]; visual rating, 13 to 15 days)
60: Plant response rating, Foxtail, Giant [4, 17] | Lambsquarters plant response rating (0 to 100 scale) [5, 16] | Barnyardgrass plant response rating ([15]; visual rating, 13 to 15 days)
80: Ducksalad plant response rating ([14]; visual rating, 13 to 15 days)
0: Corn plant response rating (0 to 100 scale) [3, 16] | Blackgrass plant response rating [9, 18]
50: Barnyardgrass plant response rating (0 to 100 scale) [1, 16] | Plant response rating, Corn [3, 17] | Plant response rating, Velvetleaf [8, 17] | Rice plant response rating ([12]; visual rating, 13 to 15 days)
10: Barnyardgrass plant response rating [1, 18] | Cocklebur plant response rating (0 to 100 scale) [2, 16] | Morningglory plant response rating (0 to 100 scale) [6, 16] | Velvetleaf plant response rating (0 to 100 scale) [8, 16] | Wheat plant response rating [10, 18]
20: Barnyardgrass plant response rating [1, 19] | Corn plant response rating [3, 18] | Foxtail, Giant plant response rating [4, 18] | Plant response rating, Morningglory [6, 17] | Morningglory plant response rating [6, 18] | Morningglory plant response rating [6, 19] | Velvetleaf plant response rating [8, 18] | Velvetleaf plant response rating [8, 19] | Blackgrass plant response rating [9, 19] | Wheat plant response rating [10, 19] | Oat, Wild plant response rating [11, 18] | Oat, Wild plant response rating [11, 19]
40: Cocklebur plant response rating [2, 19] | Lambsquarters plant response rating [5, 18] | Lambsquarters plant response rating [5, 19] | Pigweed plant response rating [7, 19]
70: Pigweed plant response rating (0 to 100 scale) [7, 16]
30: Plant response rating, Cocklebur [2, 17] | Cocklebur plant response rating [2, 18] | Corn plant response rating [3, 19] | Foxtail, Giant plant response rating (0 to 100 scale) [4, 16] | Foxtail, Giant plant response rating [4, 19] | Pigweed plant response rating [7, 18]

CCN1N=C(C(C)(C)C)CC1C(=O)Nc1cc(C(=O)N2CC=CC2)ccc1F (racemic) [Compound 310]
60: Barnyardgrass plant response rating (0 to 100 scale) [1, 16] | Lambsquarters plant response rating [5, 20]
10: Cocklebur plant response rating (0 to 100 scale) [2, 16] | Foxtail, Giant plant response rating [4, 20] | Plant response rating, Morningglory [6, 21] | Blackgrass plant response rating [9, 20] | Wheat plant response rating [10, 20]
20: Barnyardgrass plant response rating [1, 22] | Cocklebur plant response rating [2, 22] | Corn plant response rating [3, 22] | Velvetleaf plant response rating [8, 20] | Wheat plant response rating [10, 22]
30: Blackgrass plant response rating [9, 22] | Oat, Wild plant response rating [11, 20]
80: Lambsquarters plant response rating [5, 22] | Pigweed plant response rating (0 to 100 scale) [7, 16] | Rice plant response rating [12] | Sedge, Umbrella plant response rating [13]
50: Plant response rating, Cocklebur [2, 21] | Foxtail, Giant plant response rating (0 to 100 scale) [4, 16] | Morningglory plant response rating [6, 22] | Pigweed plant response rating [7, 20] | Velvetleaf plant response rating [8, 22]
90: Plant response rating, Barnyardgrass [1, 21] | Ducksalad plant response rating [14] | Barnyardgrass plant response rating [15]
70: Plant response rating, Corn [3, 21] | Pigweed plant response rating [7, 22]
40: Corn plant response rating (0 to 100 scale) [3, 16] | Foxtail, Giant plant response rating [4, 22] | Oat, Wild plant response rating [11, 22]
0: Barnyardgrass plant response rating [1, 20] | Cocklebur plant response rating [2, 20] | Corn plant response rating [3, 20] | Morningglory plant response rating (0 to 100 scale) [6, 16] | Morningglory plant response rating [6, 20]
100: Plant response rating, Foxtail, Giant [4, 21] | Lambsquarters plant response rating (0 to 100 scale) [5, 16] | Plant response rating, Lambsquarters [5, 21] | Plant response rating, Pigweed [7, 21] | Plant response rating, Velvetleaf [8, 21]

CCN(CC)C(=O)c1cccc(NC(=O)c2sc(C(C)(C)C)nc2C)c1 [Compound 199]
30: Velvetleaf plant response rating [8, 19]
100: Plant response rating, Foxtail, Giant [4, 17] | Plant response rating, Pigweed [7, 17]
40: Morningglory plant response rating [6, 18] | Pigweed plant response rating [7, 19]
60: Cocklebur plant response rating [2, 19] | Lambsquarters plant response rating [5, 18] | Plant response rating, Morningglory [6, 17] | Morningglory plant response rating [6, 19] | Plant response rating, Velvetleaf [8, 17]
20: Barnyardgrass plant response rating (0 to 100 scale) [1, 16] | Corn plant response rating [3, 19] | Velvetleaf plant response rating [8, 18] | Rice plant response rating ([12]; visual rating, 13 to 15 days)
80: Lambsquarters plant response rating (0 to 100 scale) [5, 16]
70: Lambsquarters plant response rating [5, 19]
10: Barnyardgrass plant response rating [1, 19] | Cocklebur plant response rating [2, 18] | Plant response rating, Corn [3, 17] | Corn plant response rating [3, 18] | Foxtail, Giant plant response rating (0 to 100 scale) [4, 16] | Foxtail, Giant plant response rating [4, 18] | Foxtail, Giant plant response rating [4, 19] | Pigweed plant response rating [7, 18] | Blackgrass plant response rating [9, 19] | Wheat plant response rating [10, 19] | Oat, Wild plant response rating [11, 18] | Oat, Wild plant response rating [11, 19] | Sedge, Umbrella plant response rating ([13]; visual rating, 13 to 15 days) | Barnyardgrass plant response rating ([15]; visual rating, 13 to 15 days)
0: Barnyardgrass plant response rating [1, 18] | Cocklebur plant response rating (0 to 100 scale) [2, 16] | Plant response rating, Cocklebur [2, 17] | Corn plant response rating (0 to 100 scale) [3, 16] | Morningglory plant response rating (0 to 100 scale) [6, 16] | Velvetleaf plant response rating (0 to 100 scale) [8, 16] | Blackgrass plant response rating [9, 18] | Wheat plant response rating [10, 18] | Ducksalad plant response rating ([14]; visual rating, 13 to 15 days)
90: Plant response rating, Barnyardgrass [1, 17] | Plant response rating, Lambsquarters [5, 17] | Pigweed plant response rating (0 to 100 scale) [7, 16]
